In ChEMBL document CHEMBL1158129, “Cyclic heptapeptides from the Jamaican sponge Stylissa caribica” (J Nat Prod, 2006):
≈ marks a conversion by molar mass, not a printed value. Calls of active or inactive are those of the source. The calls are words filed in the database; no cut-off is given here. Peptide text beside a SMILES is read from it.

Experiments:
[1] = test system: Candida albicans; test: Antifungal activity against Candida albicans; type: functional, organism-based
[2] = test system: Staphylococcus aureus; test: Antibacterial activity against Staphylococcus aureus; type: functional, organism-based
[3] = test system: Plasmodium falciparum; test: Antimalarial activity against Plasmodium falciparum D6; type: functional, organism-based
[4] = test system: Microglia; test: Antiinflammatory activity against rat neonatal microglia; type: functional, cell-based
[5] = test system: Pseudomonas aeruginosa; test: Antibacterial activity against Pseudomonas aeruginosa; type: functional, organism-based
[6] = test system: Aspergillus fumigatus; test: Antifungal activity against Aspergillus fumigatus; type: functional, organism-based
[7] = test system: Human immunodeficiency virus 1; test: Antiviral activity against HIV1 in human PBM cells; type: functional, organism-based
[8] = test system: Mycobacterium tuberculosis; test: Antimycobacterial activity against Mycobacterium tuberculosis; type: functional, organism-based
[9] = test system: Plasmodium falciparum; test: Antimalarial activity against Plasmodium falciparum W2; type: functional, organism-based
[10] = test system: Cryptococcus neoformans; test: Antifungal activity against Cryptococcus neoformans; type: functional, organism-based
[11] = test system: Mycobacterium intracellulare; test: Antibacterial activity against Mycobacterium intracellular; type: functional, organism-based
[12] = test system: Leishmania donovani; test: Antileishmanial activity against Leishmania donovani; type: functional, organism-based
[13] = test system: Mycobacterium tuberculosis; test: Antimycobacterial activity against Mycobacterium tuberculosis at 128 ug/mL; type: functional
[14] = test system: Bel-7402; test: Cytotoxicity against human Bel-7402; type: functional; settings: read-out: ED50 (the source's name)

Row | SMILES | Activity [1] | Activity [2] | Activity [3] | Activity [4] | Activity [5] | Activity [6] | Activity [7] | Activity [8] | Activity [9] | Activity [10] | Activity [11] | Activity [12] | Activity [13] | IC50 [10] | EC50 [14] | IC50 [3] | inhibition at 128 µg/mL [13]
1 | CC[C@H](C)[C@@H]1NC(=O)[C@@H]2CCCN2C(=O)[C@H](Cc2ccc(O)cc2)NC(=O)[C@@H]2CCCN2C(=O)[C@H](CC(C)C)NC(=O)[C@@H]2CCCN2C(=O)[C@H](Cc2ccccc2)NC1=O (cyclo(FPLPYPI)) | inactive | inactive | inactive | inactive | inactive | inactive | inactive | inactive | inactive | inactive | inactive | – | – | – | – | – | –
2 | Nc1nc([C@H]2[C@H](CNC(=O)c3cc(Br)c[nH]3)[C@@H](CNC(=O)c3cc(Br)c[nH]3)[C@@H]2c2c[nH]c(N)n2)c[nH]1 [SCEPTRIN] | – | – | – | – | – | – | inactive | – | – | – | – | inactive | inactive | 3.5 µg/mL (≈ 5.64 µM) | – | – | –
3 | CC(C)C[C@@H]1NC(=O)[C@H]([C@@H](C)O)NC(=O)[C@@H]2CCCN2C(=O)CNC(=O)[C@H](Cc2ccccc2)NC(=O)[C@@H]2CCCN2C(=O)[C@H](Cc2c[nH]c3ccccc23)NC1=O [PHAKELLISTATIN 13] (cyclo(FGPTLWP)) | – | – | – | – | – | – | – | – | – | – | – | – | – | – | < 0.01 µg/mL | – | –
4 | Nc1ncc(C2=CCNC(=O)c3[nH]c(Br)c(Br)c32)[nH]1 [STEVENSINE] | – | – | – | – | – | – | inactive | – | – | inactive | – | inactive | – | – | – | 1.8 µg/mL (≈ 4.65 µM) | 95%
5 | Nc1ncc(/C=C/CNC(=O)c2cc(Br)c(Br)[nH]2)[nH]1 [OROIDIN] | – | – | – | – | – | – | inactive | – | – | inactive | – | inactive | – | – | – | 1.2 µg/mL (≈ 3.08 µM) | 71%
6 | CC[C@H](C)[C@@H]1NC(=O)[C@@H]2CCCN2C(=O)[C@H](Cc2ccccc2)NC(=O)[C@@H]2CCCN2C(=O)[C@@H]2CCCN2C(=O)[C@H](Cc2ccc(O)cc2)NC(=O)[C@@H]2CCCN2C1=O (cyclo(FPIPYPP)) | inactive | inactive | inactive | inactive | inactive | inactive | inactive | inactive | inactive | inactive | inactive | – | – | – | – | – | –
